Assay results from PMC11003488 (Journal of Enzyme Inhibition and Medicinal Chemistry, 2023).
Several values for one entry are separate records, joined by “and”; a condition that tells them apart may be missing. Equal entries are not always repeated. Where two headings read alike, the source gives them in different places.

Experiments:
HL-60(TB) = experiment: cells; assay type: cell-based; conditions: Homo sapiens
RPMI-8226 = experiment: NCI-60 SRB growth inhibition, one-dose and five-dose; assay type: cell-based; conditions: Homo sapiens
HOP-62 = experiment: as above; assay type: cell-based; conditions: Homo sapiens
NCI-H226 = experiment: as above; assay type: cell-based; conditions: Homo sapiens
HCC-2998 = experiment: as above; assay type: cell-based; conditions: Homo sapiens
HCT-116 = experiment: as above; assay type: cell-based; conditions: Homo sapiens
KM12 = experiment: as above; assay type: cell-based; conditions: Homo sapiens
SF-539 = experiment: as above; assay type: cell-based; conditions: Homo sapiens
MDA-MB-435 = experiment: as above; assay type: cell-based; conditions: Homo sapiens
UACC-62 = experiment: as above; assay type: cell-based; conditions: Homo sapiens
IGROV1 = experiment: as above; assay type: cell-based; conditions: Homo sapiens
OVCAR-8 = experiment: as above; assay type: cell-based; conditions: Homo sapiens, OVCAR-8, read-out: percent growth inhibition
ACHN = experiment: as above; assay type: cell-based; conditions: Homo sapiens
SN12C = experiment: as above; assay type: cell-based; conditions: Homo sapiens
TK-10 = experiment: as above; assay type: cell-based; conditions: Homo sapiens
UO-31 = experiment: as above; assay type: cell-based; conditions: Homo sapiens, UO-31
PC-3 = experiment: as above; assay type: cell-based; conditions: Homo sapiens
MDA-MB-231/ATCC = experiment: as above; assay type: cell-based; conditions: Homo sapiens, MDA-MB-231
HS 578 T = experiment: as above; assay type: cell-based; conditions: Homo sapiens
Leukaemia cell lines = experiment: NCI-60 SRB growth inhibition, subpanel; assay type: cell-based, human; conditions: Homo sapiens
NSCLC cell lines = experiment: NCI-60 SRB growth inhibition, subpanel; assay type: cell-based, human; conditions: for GI50: Homo sapiens
Colon cancer cell lines = experiment: NCI-60 SRB growth inhibition, subpanel; assay type: cell-based, human; conditions: for GI50: Homo sapiens
CNS cancer cell lines = experiment: NCI-60 SRB growth inhibition, subpanel; assay type: cell-based, human; conditions: for GI50: Homo sapiens
Melanoma cell lines = experiment: NCI-60 SRB growth inhibition, subpanel; assay type: cell-based, human; conditions: for GI50: Homo sapiens
[1] = system: Ovarian cancer cell lines; experiment: NCI-60 SRB growth inhibition, subpanel; assay type: cell-based, human; conditions: for GI50: Homo sapiens
Renal cancer cell lines = experiment: NCI-60 SRB growth inhibition, subpanel; assay type: cell-based, human; conditions: for GI50: Homo sapiens
[2] = system: Prostate cancer cell lines; experiment: NCI-60 SRB growth inhibition, subpanel; assay type: cell-based, human; conditions: for GI50: Homo sapiens
Breast cancer cell lines = experiment: NCI-60 SRB growth inhibition, subpanel; assay type: cell-based, human; conditions: for GI50: Homo sapiens
[3] = Cytotoxicity towards normal fibroblasts, safety index; assay type: cell-based, human; conditions: human, WI-38 normal fibroblast cells
[4] = system: WI-38 normal human fibroblast cells; experiment: as above; assay type: cell-based; conditions: WI-38 versus cancer cell lines
Human VEGFR-2 = Human VEGFR-2 (Homo sapiens, UniProt P35968); experiment: VEGFR-2 inhibition assay; assay type: biochemical
HCT-116 (colon cancer) [5] = experiment: Apoptosis AV/PI assay by flow cytometry; assay type: cell-based, human; conditions: HCT-116, 24 h, IC50 of compound
HCT-116 (colon cancer) [6] = experiment: Cell cycle analysis by PI flow cytometry; assay type: cell-based, human; conditions: HCT-116, 24 h, IC50 of compound
Caspase-3 [7] = experiment: Protein level by ELISA assay in HCT-116; assay type: cell-based, human; conditions: HCT-116, IC50 of compound, 24 h, vs 0.1% DMSO
Bax [8] = experiment: Protein level by ELISA assay in HCT-116; assay type: cell-based, human; conditions: HCT-116, IC50 of compound, 24 h, vs 0.1% DMSO
Caspase-3 [9] = experiment: Gene expression by RT-qPCR in HCT-116; conditions: HCT-116, 24 h, IC50 of compound; vs 0.1% DMSO; 2^-ΔΔct
Bax [10] = experiment: Gene expression by RT-qPCR in HCT-116; conditions: HCT-116, 24 h
TNF-α = experiment: Gene expression by RT-qPCR in HCT-116; conditions: HCT-116, 24 h, IC50 of compound; vs 0.1% DMSO; 2^-ΔΔct
[11] = read-out: percent growth inhibition

Chain of Human VEGFR-2 (P35968 20-1356): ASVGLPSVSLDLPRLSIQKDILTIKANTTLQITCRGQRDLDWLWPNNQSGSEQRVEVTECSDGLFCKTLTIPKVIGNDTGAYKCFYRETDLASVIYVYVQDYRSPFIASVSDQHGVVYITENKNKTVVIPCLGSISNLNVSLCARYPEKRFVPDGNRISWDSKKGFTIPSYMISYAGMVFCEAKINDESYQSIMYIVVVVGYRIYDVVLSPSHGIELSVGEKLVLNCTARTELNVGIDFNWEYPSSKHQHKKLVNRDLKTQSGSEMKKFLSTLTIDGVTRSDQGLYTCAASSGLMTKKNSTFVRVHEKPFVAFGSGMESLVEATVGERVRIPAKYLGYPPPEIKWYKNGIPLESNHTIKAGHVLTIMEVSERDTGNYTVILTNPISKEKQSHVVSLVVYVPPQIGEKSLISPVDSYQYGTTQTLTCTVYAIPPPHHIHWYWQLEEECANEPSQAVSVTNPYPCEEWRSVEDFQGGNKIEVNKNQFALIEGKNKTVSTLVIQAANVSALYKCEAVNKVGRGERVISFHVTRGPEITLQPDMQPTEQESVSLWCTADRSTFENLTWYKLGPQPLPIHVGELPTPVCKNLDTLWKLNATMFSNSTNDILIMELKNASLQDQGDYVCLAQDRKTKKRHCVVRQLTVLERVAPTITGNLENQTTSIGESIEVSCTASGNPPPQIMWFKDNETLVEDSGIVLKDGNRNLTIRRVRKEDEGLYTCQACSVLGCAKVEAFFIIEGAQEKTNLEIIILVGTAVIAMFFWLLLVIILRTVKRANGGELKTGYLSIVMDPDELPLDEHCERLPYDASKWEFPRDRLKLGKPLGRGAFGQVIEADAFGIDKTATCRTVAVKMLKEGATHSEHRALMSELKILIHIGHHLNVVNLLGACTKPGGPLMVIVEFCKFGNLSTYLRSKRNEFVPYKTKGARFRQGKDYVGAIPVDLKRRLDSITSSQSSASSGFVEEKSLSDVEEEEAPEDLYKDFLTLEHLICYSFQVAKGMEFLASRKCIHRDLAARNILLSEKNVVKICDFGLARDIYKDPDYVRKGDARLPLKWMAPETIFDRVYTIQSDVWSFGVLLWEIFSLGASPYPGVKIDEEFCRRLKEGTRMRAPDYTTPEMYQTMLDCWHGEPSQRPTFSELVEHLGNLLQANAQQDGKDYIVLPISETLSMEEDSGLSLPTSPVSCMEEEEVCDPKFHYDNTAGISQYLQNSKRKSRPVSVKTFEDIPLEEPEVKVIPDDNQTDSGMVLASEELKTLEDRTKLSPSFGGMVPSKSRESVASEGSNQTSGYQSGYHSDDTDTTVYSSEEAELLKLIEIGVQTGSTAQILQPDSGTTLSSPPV

`O=C(/C=C/c1cccnc1)c1cccc(NCc2ccc(CO)cc2)c1` [Compound 5e, (E)-1–(3-((4-(hydroxymethyl)benzyl)amino)phenyl)-3-(pyridin-3-yl)prop-2-en-1-one] gave a GI50 (HL-60(TB); HL-60) of 4.23 µM, an inhibition at 10 µM (HL-60(TB); HL-60, read-out: percent growth inhibition) of 118% and a GI50 (RPMI-8226; RPMI-8226) of 2.27 µM. The inhibition at 10 µM (RPMI-8226; RPMI-8226, read-out: percent growth inhibition) was 133%, the GI50 (HOP-62; HOP-62) was 15 µM and the inhibition at 10 µM (HOP-62; HOP-62, read-out: percent growth inhibition) was 20.7%. For the same compound, the GI50 (NCI-H226; NCI-H226) was 11.2 µM, the inhibition at 10 µM (NCI-H226; NCI-H226, read-out: percent growth inhibition) was 123% and the GI50 (HCC-2998; HCC 2998) was 5.6 µM. The inhibition at 10 µM (HCC-2998; HCC 2998, read-out: percent growth inhibition) was 190%, the GI50 (HCT-116; HCT-116, HCT-116, five-dose screening) was 1.88 µM and the inhibition at 10 µM (HCT-116; HCT-116, read-out: percent growth inhibition) was 193%. The GI50 (KM12; KM12) was 7.91 µM, the inhibition at 10 µM (KM12; KM12, read-out: percent growth inhibition) was 189% and the GI50 (SF-539; SF-539) was 14.5 µM. It also gave an inhibition at 10 µM (SF-539; SF-539, read-out: percent growth inhibition) of 98.5%, a GI50 (MDA-MB-435; MDA-MB-435) of 5.26 µM and an inhibition at 10 µM (MDA-MB-435; MDA-MB-435, read-out: percent growth inhibition) of 58.7%. The GI50 (UACC-62; UACC-62) was 11.3 µM, the inhibition at 10 µM (UACC-62; UACC-62, read-out: percent growth inhibition) was 59.8% and the GI50 (IGROV1; IGROV-1) was 3.58 µM. For the same compound, the inhibition at 10 µM (IGROV1; IGROV-1, read-out: percent growth inhibition) was 86.3%, the inhibition at 10 µM (OVCAR-8) was 97.2% and the GI50 (ACHN) was 8.07 µM. For the same compound, the inhibition at 10 µM (ACHN; [11]) was 81.6%, the GI50 (SN12C) was 12.3 µM and the inhibition at 10 µM (SN12C; [11]) was 94.4%. It also gave a GI50 (TK-10; TK-10) of 15 µM, an inhibition at 10 µM (TK-10; TK-10, read-out: percent growth inhibition) of 30.6% and a GI50 (UO-31) of 11.2 µM. It also gave a GI50 (PC-3; PC-3) of 11.6 µM, an inhibition at 10 µM (PC-3; PC-3, read-out: percent growth inhibition) of 62.6% and a GI50 (MDA-MB-231/ATCC) of 3.75 µM. For the same compound, the GI50 (HS 578 T) was 18 µM, the inhibition at 10 µM (HS 578 T; [11]) was 33.5% and the GI50 (Leukaemia cell lines; read-out: GI50 MG-MID) was 3.29 µM. For the same compound, the GI50 (Leukaemia cell lines; read-out: MG-MID GI50) was 3.29 µM, the GI50 (NSCLC cell lines; read-out: GI50 MG-MID) was 13.6 µM and the GI50 (NSCLC cell lines; read-out: MG-MID GI50) was 13.6 µM. For the same compound, the “SI (Selectivity Index)” value (NSCLC cell lines; full panel MG-MID / NSCLC subpanel MG-MID) was 0.73, the GI50 (Colon cancer cell lines; read-out: GI50 MG-MID) was 6.42 µM and the GI50 (Colon cancer cell lines; read-out: MG-MID GI50) was 6.42 µM. For the same compound, the “SI (Selectivity Index)” value (Colon cancer cell lines; full panel MG-MID / Colon Cancer subpanel MG-MID) was 1.55, the GI50 (CNS cancer cell lines; read-out: GI50 MG-MID) was 12.2 µM and the GI50 (CNS cancer cell lines; read-out: MG-MID GI50) was 12.2 µM. The “SI (Selectivity Index)” value (CNS cancer cell lines; full panel MG-MID / CNS Cancer subpanel MG-MID) was 0.82, the GI50 (Melanoma cell lines; read-out: GI50 MG-MID) was 10.6 µM and the GI50 (Melanoma cell lines; read-out: MG-MID GI50) was 10.6 µM. For the same compound, the “SI (Selectivity Index)” value (Melanoma cell lines; full panel MG-MID / Melanoma subpanel MG-MID) was 0.94, the GI50 ([1]; read-out: GI50 MG-MID) was 11.2 µM and the GI50 ([1]; read-out: MG-MID GI50) was 11.2 µM. For the same compound, the “SI (Selectivity Index)” value ([1]; full panel MG-MID / Ovarian Cancer subpanel MG-MID) was 0.89, the GI50 (Renal cancer cell lines; read-out: GI50 MG-MID) was 13 µM and the GI50 (Renal cancer cell lines; read-out: MG-MID GI50) was 13 µM. The “SI (Selectivity Index)” value (Renal cancer cell lines; full panel MG-MID / Renal Cancer subpanel MG-MID) was 0.77, the GI50 ([2]; read-out: GI50 MG-MID) was 12.2 µM and the GI50 ([2]; read-out: MG-MID GI50) was 12.2 µM. For the same compound, the “SI (Selectivity Index)” value ([2]; full panel MG-MID / Prostatic Cancer subpanel MG-MID) was 0.82, the GI50 (Breast cancer cell lines; read-out: GI50 MG-MID) was 7.2 µM and the GI50 (Breast cancer cell lines; read-out: MG-MID GI50) was 7.2 µM. The “SI (Selectivity Index)” value (Breast cancer cell lines; full panel MG-MID / Breast Cancer subpanel MG-MID) was 1.38, the GI50 at 48 h [3] was > 100 µM and the Safety index [4] was >1. The IC50 (Human VEGFR-2) was 0.37 ± 0.012 µM, the “% Early apoptotic cells (LR)” value (HCT-116 (colon cancer) [5]) was 0.05 ± 0.001% and the “% Late apoptotic cells (UL)” value (HCT-116 (colon cancer) [5]) was 94.74 ± 8.9%. The “% Necrotic cells (UR)” value (HCT-116 (colon cancer) [5]) was 2.71 ± 0.33%, the “% Viable cells (LL)” value (HCT-116 (colon cancer) [5]) was 2.50 ± 0.12% and the “% G0-G1” value (HCT-116 (colon cancer) [6]) was 30.02 ± 7.1%. The “% G2M” value (HCT-116 (colon cancer) [6]) was 10.42 ± 1.7%, the “% S” value (HCT-116 (colon cancer) [6]) was 10.55 ± 3.5% and the “% SubG0-G1” value (HCT-116 (colon cancer) [6]) was 49.01 ± 7.2%. For the same compound, the caspase-3 protein level (Caspase-3 [7]) was 58.44 fold, the Bax protein level (Bax [8]) was 3.14 fold and the “Caspase-3 gene expression fold change” value (Caspase-3 [9]) was 2.28 ± 0.14 fold. The “Bax gene expression fold change” value (Bax [10]; IC50 of compound, vs 0.1% DMSO, 2^-ΔΔct) was 5 fold and 5.00 ± 1.1 fold, the Bax/Bcl-2 ratio (Bax [10]; ratio of gene expression fold changes) was 4.5 and the “TNF-α gene expression fold change” value (TNF-α) was 372 fold and 372.22 ± 10.8 fold.
